Laboratory results published in paper PMC12693026, “Green Contributions to the Chemistry of Perezone and Oxidation of the Double Bond of the Side Chain: A Theoretical Study and Cytotoxic Evaluation in MDA-MB231 Cells” (Molecules, 2025).
Like-named read-outs stand apart in the source and are kept apart here.

Assays:
[1] = tested on: MDA-MB-231 breast cancer cells; test: MTT cytotoxicity assay on MDA-MB-231 breast cancer cells; format: cell-based; details: mean ± S.D. of three values
Protocol: (§1) This test was performed using the MDA-MB231 breast cancer cell line (ATCC® CRM-HBT-26), as described by Mosmann. The cells were incubated at different concentrations of the compounds of interest. To generate the cell viability curves of all synthesized compounds, cells were seeded in 96-well culture plates at a density of 5000 cells/well and cultured in DMEM supplemented with 10% FBS. Cell viability was measured using MTT reagent dissolved in PBS (0.5 mg/mL). On the day of measurement, the medium was carefully replaced with fresh DMEM and 10% SFB containing diluted MTT (1:10, 10% MTT), and the sample was incubated for 1 h at 37 °C in a CO2 incubator to allow for the transformation of MTT dye into Formazan salt. After removing the incubation medium, the Formazan crystals were dissolved in 100 µL of DMSO solution. It is also important to note that the reduction in MTT was quantified by measuring absorbance at 570 nm using the Benchmark Plus absorbance microplate reader (Bio-Rad). The MTT test was repeated nine times. The proliferation percentage (% viability) was calculated according to the following:% Viability = (B/A) × 100 where A is the absorbance value of the control group and B is the absorbance value of the cells treated with the compounds of interest.
IC50 was extrapolated from the dose–response plot, obtained by plotting viability versus concentration. The concentration of the drug that reduced the viability of the cells by 50% (IC50) was determined by plotting the data points in triplicate over a concentration range and calculating the values using regression analysis.

[2] = MTT mortality on normal fibroblasts (control); format: cell-based; details: human, primary dermal fibroblast normal cells, data from IC50 (µM)
Protocol: [The source words this procedure for another cell line and says it was used here with some conditions changed.] as §1

[3] = Solubility observed in the cytotoxic testing; format: physicochemical; details: observation during MTT testing
[4] = tested on: caspase-3; details: cited from earlier work
[5] = Homo sapiens, MDA-MB-231, MDA-MB-231, MTT assay, read-out: IC50
[6] = Homo sapiens, MDA-MB-231, MDA-MB-231, MTT assay, read-out: IC50 (μg/mL)

CC1=CC(=O)C(C(C)CCC2OC2(C)C)=C(O)C1=O (centres unmarked) [Compound 3]
IC50 [1, 5]: 9.62 ± 0.76 µM
IC50 [1, 6]: 2.54 ± 0.2 µg/mL
mortality at 24 h [2]: 19.5 ± 3.27%

CC(C)=CCC[C@@H](C)C1=CC(=O)C(C)=C(O)C1=O [Compound 2, isoperezone, reference compound]
IC50 [1, 5]: 19.31 ± 0.05 µM
IC50 [1, 6]: 4.79 ± 0.01 µg/mL

CC(=O)OC(C)(C)C(O)CCC(C)C1=C(O)C(=O)C(C)=CC1=O (centres unmarked) [Compound 7]
IC50 [1, 5]: 103 ± 5.96 µM
IC50 [1, 6]: 33.2 ± 1.93 µg/mL
mortality at 24 h [2]: 96.8 ± 2.76%
solubility in the cytotoxic/IC50 testing (in words) [3]: did not show great solubility

CC1=CC(=O)C(C(C)CCC(O)C(C)(C)O)=C(O)C1=O (centres unmarked) [Compound 9]
IC50 [1, 5]: 101 ± 19.2 µM
IC50 [1, 6]: 28.4 ± 5.4 µg/mL
mortality at 24 h [2]: 46.4 ± 1.08%

CC(=O)OC(C)(C)C(O)CCC(C)C1=CC(=O)C(C)=C(O)C1=O (centres unmarked) [Compound 8]
IC50 [1, 6]: 33 µg/mL
solubility in the cytotoxic/IC50 testing (in words) [3]: poor solubility

CC1=C(O)C(=O)C(C(C)CCC2OC2(C)C)=CC1=O (centres unmarked) [Compound 4]
IC50 [1, 5]: 114 ± 31.8 µM
IC50 [1, 6]: 30 µg/mL
IC50 ([1]; MDA-MB-231, MTT assay): 30.2 ± 8.4 µg/mL
mortality at 24 h [2]: 42.38 ± 0.19%

CC1=CC(=O)C(C(C)CCC2OC(C)(C)OC2(C)C)=C(O)C1=O (centres unmarked) [Compound 5]
IC50 [1, 5]: 74.9 ± 14.8 µM
IC50 [1, 6]: 24.1 ± 4.75 µg/mL
mortality at 24 h [2]: 90.7 ± 0.58%

CC1=C(O)C(=O)C(C(C)CCC(O)C(C)(C)O)=CC1=O (centres unmarked) [Compound 10]
IC50 [1, 5]: 140 ± 6.13 µM
IC50 [1, 6]: 39.4 ± 1.73 µg/mL
mortality at 24 h [2]: 68.7 ± 1.08%

CC1=CC(=O)c2c(O)cccc2C1=O [plumbagin]
binding energy of complex with caspase-3 [4]: -10.13 kcal/mol

O=C[C@H](O)[C@@H](O)[C@@H](O)[C@H](O)C(=O)O [D-galacturonic acid]
binding energy with caspase-3 ([4]; assessed for diabetes mellitus): -4.03 kcal/mol

CC1=C(O)C(=O)C(C(C)CCC2OC(C)(C)OC2(C)C)=CC1=O (centres unmarked) [Compound 6]
IC50 [1, 5]: 8.44 ± 1.46 µM
IC50 [1, 6]: 2.72 ± 0.47 µg/mL
mortality at 24 h [2]: 18.4 ± 1.54%
